Measurements as given in ChEMBL document CHEMBL1201862, “PubChem BioAssay data set” (2004).
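Briefly, cells in 96-well plates were exposed to five compound concentrations for 48 h, and endpoints were estimated by linear interpolation. GI50: concentration for 50% inhibition of growth.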 Activity calls are given as the source filed them. Rule as the data show it: active = GI50 up to about 1.1 µM and inactive = higher.

Legend:
Assay in all cases: NCI anticancer screen, dose series, 48 h
786-0 = system: 786-0
A498 = system: A498
CAKI-1 = system: CAKI-1
COLO 205 = system: COLO 205
HCC 2998 = system: HCC 2998
HCT-116 = system: HCT-116
KM12 = system: KM12
MCF7 = system: MCF7
MOLT-4 = system: MOLT-4
NCI-H226 = system: NCI-H226
NCI-H23 = system: NCI-H23
OVCAR-4 = system: OVCAR-4
OVCAR-5 = system: OVCAR-5
SK-OV-3 = system: SK-OV-3
SN12C = system: SN12C
SNB-75 = system: SNB-75
SR = system: SR
SW-620 = system: SW-620
TK-10 = system: TK-10
UO-31 = system: UO-31

SMILES	GI50 (786-0)	GI50 (A498)	GI50 (CAKI-1)	GI50 (COLO 205)	GI50 (HCC 2998)	GI50 (HCT-116)	GI50 (KM12)	GI50 (MCF7)	GI50 (MOLT-4)	GI50 (NCI-H226)	GI50 (NCI-H23)	GI50 (OVCAR-4)	GI50 (OVCAR-5)	GI50 (SK-OV-3)	GI50 (SN12C)	GI50 (SNB-75)	GI50 (SR)	GI50 (SW-620)	GI50 (TK-10)	GI50 (UO-31)
CCOC(=O)c1c(N2CCCC2)[nH]c(=O)c(C(c2cccs2)c2c(O)c(C(=O)OCC)c(N3CCCC3)[nH]c2=O)c1O	> 100 µM (inactive)	> 100 µM (inactive)	> 100 µM (inactive)	> 100 µM (inactive)	> 100 µM (inactive)	> 100 µM (inactive)	> 100 µM (inactive)	> 100 µM (inactive)	> 100 µM (inactive)	> 100 µM (inactive)	> 100 µM (inactive)	> 100 µM (inactive)	> 100 µM (inactive)	> 100 µM (inactive)	> 100 µM (inactive)	> 100 µM (inactive)	> 100 µM (inactive)	> 100 µM (inactive)	> 100 µM (inactive)	> 100 µM (inactive)
O=S(=O)(Nc1ccccc1)c1ccc(-c2c3nc(c(-c4ccc(S(=O)(=O)Nc5ccccc5)cc4)c4ccc([nH]4)c(-c4ccc(S(=O)(=O)Nc5ccccc5)cc4)c4nc(c(-c5ccc(S(=O)(=O)Nc6ccccc6)cc5)c5ccc2[nH]5)C=C4)C=C3)cc1	18.9 µM (inactive)	> 31.6 µM (inactive)	> 31.6 µM (inactive)	> 31.6 µM (inactive)	17.7 µM (inactive)	> 31.6 µM (inactive)	> 31.6 µM (inactive)	> 31.6 µM (inactive)	> 31.6 µM (inactive)	> 100 µM (inactive)	> 31.6 µM (inactive)	12.6 µM (inactive)	> 31.6 µM (inactive)	> 31.6 µM (inactive)	> 31.6 µM (inactive)	11.5 µM (inactive)	> 31.6 µM (inactive)	> 31.6 µM (inactive)	> 31.6 µM (inactive)	> 31.6 µM (inactive)
COc1cc(OC)c(OC)cc1/C=C\c1ccnc2ccccc12	0.687 µM (active)	0.522 µM (active)	1.05 µM (active)	0.463 µM (active)	1.02 µM (active)	0.574 µM (active)	0.675 µM (active)	0.372 µM (active)	0.575 µM (active)	0.977 µM (active)	0.832 µM (active)	4.51 µM (inactive)	7.23 µM (inactive)	0.465 µM (active)	0.622 µM (active)	0.335 µM (active)	0.933 µM (active)	0.679 µM (active)	2.17 µM (inactive)	0.944 µM (active)
C/C1=C\C=C(\C(C)C)CC/C(C(=O)O)=C\CC/C(C)=C/CC1 [NEOCROTOCEMBRANEIC ACID]	24.6 µM (inactive)	17.6 µM (inactive)	31.7 µM (inactive)	23.4 µM (inactive)	18.7 µM (inactive)	15.9 µM (inactive)	20.6 µM (inactive)	16.9 µM (inactive)	19.1 µM (inactive)	20.9 µM (inactive)	20.7 µM (inactive)	33.4 µM (inactive)	29.3 µM (inactive)	27.6 µM (inactive)	21.2 µM (inactive)	33.7 µM (inactive)	19.5 µM (inactive)	35.8 µM (inactive)	31.8 µM (inactive)	30.3 µM (inactive)
O=c1c2c3c(sc2nc2n1N=C(c1ccc([N+](=O)[O-])cc1)CS2)CCCC3	> 100 µM (inactive)	> 100 µM (inactive)	> 100 µM (inactive)	> 100 µM (inactive)	> 100 µM (inactive)	> 100 µM (inactive)	> 100 µM (inactive)	> 100 µM (inactive)	> 100 µM (inactive)	> 100 µM (inactive)	> 100 µM (inactive)	> 100 µM (inactive)	> 100 µM (inactive)	> 100 µM (inactive)	> 100 µM (inactive)	> 100 µM (inactive)	> 100 µM (inactive)	> 100 µM (inactive)	42.2 µM (inactive)	> 100 µM (inactive)
Cc1c(N(C)C)ccc2c(=O)c3cccc(CC(=O)O)c3oc12	> 100 µM (inactive)	> 81.8 µM (inactive)	> 100 µM (inactive)	> 100 µM (inactive)	> 100 µM (inactive)	> 100 µM (inactive)	> 100 µM (inactive)	> 100 µM (inactive)	> 100 µM (inactive)	> 100 µM (inactive)	> 100 µM (inactive)	> 100 µM (inactive)	> 100 µM (inactive)	> 100 µM (inactive)	> 100 µM (inactive)	> 100 µM (inactive)	> 100 µM (inactive)	> 33.3 µM (inactive)	> 100 µM (inactive)	> 100 µM (inactive)
Cc1cc2c(cc1C(=O)CCC(=O)O)CC1(C2)Cc2cc(C)c(C(=O)CCC(=O)O)cc2C1	> 100 µM (inactive)	> 100 µM (inactive)	> 100 µM (inactive)	> 100 µM (inactive)	> 100 µM (inactive)	> 100 µM (inactive)	> 100 µM (inactive)	> 100 µM (inactive)	> 100 µM (inactive)	> 100 µM (inactive)	> 100 µM (inactive)	> 100 µM (inactive)	> 100 µM (inactive)	> 100 µM (inactive)	> 100 µM (inactive)	90.6 µM (inactive)	> 100 µM (inactive)	> 100 µM (inactive)	> 100 µM (inactive)	> 100 µM (inactive)
